Measured values published in publication PMC11768083, “Crude Drugs for Clearing Heat Contain Compounds Exhibiting Anti-Inflammatory Effects in Interleukin-1β-Treated Rat Hepatocytes” (Molecules, 2025).
Entries after “also recorded” stand apart in the source; their conditions may differ. Like-named read-outs stand apart in the source and are kept apart here.

Key:
[1] = test system: primary-cultured rat hepatocytes; assay: LDH activity in the hepatocyte medium (cytotoxicity); assay type: cell-based; conditions: for Cytotoxicity / LDH activity of the medium: hepatocytes, 8 h incubation; for LDH activity in the medium (cytotoxicity): at the concentrations of the NO assay, 8 h
Protocol: (§1) After 8 h of incubation with 1 nM IL-1β and/or a fraction or compound, nitrite (a stable metabolite of NO) was measured in triplicate using the Griess method. The NO concentration in the medium alone was set at 0%, whereas the concentration in the medium including IL-1β alone was set at 100%. […] Cytotoxicity was monitored by estimating the LDH activity in the medium using LDH Cytotoxicity Detection Kits (Takara Bio Inc., Kusatsu, Japan). The Griess reagent was added to the medium and incubated at 20–23 °C for 5 min, and the absorbance at 540 nm was measured to determine the decrease in nitrite. The LDH activity of the whole-cell extract was assumed to be 100%, whereas the LDH activity of the medium alone was assumed to have no cytotoxicity (i.e., less than 5% of the LDH activity of the whole-cell extract).

[2] = test system: Il1r1 mRNA; conditions: cited from earlier work
[3] = test system: NO production in IL-1β-treated rat hepatocytes; conditions: cited from earlier work
[4] = test system: iNOS antisense transcript (iNOS-AS); set-up: method as in PMID 28681120, doi:10.7243/2050-0874-1-2, PMID 27774888; conditions: cited from earlier work
[5] = test system: NO production in IL-1β-treated rat hepatocytes; assay: NO production (nitrite, Griess method) in IL-1β-treated primary-cultured rat hepatocytes; assay type: cell-based; conditions: for IC50: Rattus norvegicus, Hepatocyte
Protocol: (§2) After acclimatization, the Wistar rats were euthanized by the intraperitoneal administration of an anesthetic combination of medetomidine hydrochloride, midazolam, and butorphanol tartrate. Rat livers were used to prepare hepatocytes as previously described. In brief, the liver was perfused with collagenase. The cells were resuspended in Williams’ E (WE) medium supplemented with 10% newborn calf serum, 10 nM dexamethasone, and 10 nM human insulin and seeded at 1.2 ×10^6 cells per 35 mm diameter dish. After the medium was replaced with serum-free WE medium, the cells were incubated overnight. The next day, the medium was replaced with WE medium containing 1 nM recombinant rat IL-1β [54] and/or a fraction or compound. The hepatocytes were further incubated at 37 °C for 4 h before RNA extraction or for 8 h before measuring the NO levels and performing a Western blot analysis of the cell lysates.
as §1

[6] = test system: LPS-treated RAW264.7 cells; set-up: method as in PMID 38339007; conditions: read-out: IC50 for NO production; cited from earlier work
[7] = test system: Tnf mRNA; assay: RT-qPCR of Tnf mRNA in IL-1β-treated hepatocytes; assay type: cell-based, rat; conditions: with IL-1β; normalized to Ef1a mRNA; versus IL-1β alone
Protocol: as §2
(§3) Hepatocytes were lysed in Sepasol I Super G solution (Nacalai Tesque, Inc.) to extract total RNA, which was purified using an RNAqueous Kit and a TURBO DNA-free Kit (Applied Biosystems, Austin, TX, USA). The resulting RNA was converted to cDNA, which was amplified by PCR in triplicate with primers, SYBR Green I, and the Thermal Cycler Dice Real-Time System (Takara Bio Inc.). Ct values were calculated by the ΔΔCt method and then normalized to elongation factor 1α (Ef1a) mRNA [18, 54]. The mRNA levels normalized to the total RNA from the livers of the mice fed a diet alone were set at 100%.

[8] = test system: Il1r1 mRNA; assay: RT-qPCR of Il1r1 mRNA in IL-1β-treated hepatocytes; assay type: cell-based, rat; conditions: with IL-1β; normalized to Ef1a mRNA; versus IL-1β alone
Protocol: as §2
as §3, with “The mRNA levels normalized to the total RNA from the livers of the mice fed a diet alone were set at 100%.” left out

[9] = test system: iNOS mRNA; assay: RT-qPCR of iNOS mRNA in IL-1β-treated hepatocytes; assay type: cell-based, rat; conditions: with IL-1β; normalized to Ef1a mRNA; versus IL-1β alone
Protocol: as §2, §3

[10] = test system: iNOS antisense transcript (iNOS-AS); assay: RT-qPCR of iNOS antisense transcript in IL-1β-treated hepatocytes; assay type: cell-based, rat; conditions: with IL-1β; RNA 3 h after addition
Protocol: as §2, with “The hepatocytes were further incubated at 37 °C for 4 h before RNA extraction or for 8 h before measuring the NO levels and performing a Western blot analysis of the cell lysates.” left out
as §3

[11] = test system: iNOS protein; assay: Immunoblot of iNOS protein in IL-1β-treated hepatocytes; assay type: cell-based, rat; conditions: with IL-1β, 8 h; β-tubulin control
Protocol: as §2
Hepatocyte lysates were prepared, resolved on a 10% sodium dodecyl sulfate–polyacrylamide gel, and transferred onto a membrane, as previously described. […] The protein of interest was visualized by ECL Western blotting Detection Reagents (Cytiva, Tokyo, Japan) and detected using an Amersham Imager 600 (Cytiva).

[12] = test system: rat liver injuries caused by ischemia–reperfusion and partial hepatectomy; set-up: method as in PMID 38727775; conditions: cited from earlier work
[13] = test system: lymphotoxin β (Ltb) mRNA; assay: RT-qPCR of Ltb mRNA in IL-1β-treated hepatocytes; assay type: cell-based, rat; conditions: with IL-1β, 4 h; normalized to Ef1a mRNA
Protocol: as §2
as §3, with “The mRNA levels normalized to the total RNA from the livers of the mice fed a diet alone were set at 100%.” left out

[14] = means ± SDs, read-out: IC50 (μM) for NO production in IL-1β-stimulated hepatocytes
[15] = 1 nM IL-1β, 8 h, means ± SDs, at least three experiments, read-out: IC50 (μM) for NO production in IL-1β-stimulated hepatocytes
[16] = constituents of Atractylodes chinensis rhizomes

SMILES: C=C(C)[C@@H]1CC[C@]2(C(=O)O)CC[C@]3(C)[C@H](CC[C@@H]4[C@@]5(C)CC[C@H](O)C(C)(C)[C@@H]5CC[C@]43C)[C@@H]12 [betulinic acid, reference compound]
- Cytotoxicity / LDH activity of the medium [1]: increased LDH activity in a concentration-dependent manner

SMILES: COc1cc(O)c2c(c1)O[C@H](c1ccc(O)cc1)CC2=O [Sakuranetin, (S)-(–)-4′,5-dihydroxy-7-methoxyflavanone]
- Il1r1 gene expression [2]: decreases

SMILES: CC(=O)Oc1ccccc1C(=O)O [aspirin]
- Il1r1 gene expression ([2]; rat hepatocytes): suppress

SMILES: O=C(/C=C/c1ccc(O)c(O)c1)O[C@@H]1C[C@](O)(C(=O)O)C[C@@H](O)[C@H]1O [Chlorogenic acid]
- IC50 [3, 14]: 652 ± 114 µM
- iNOS-AS level [4]: reducing iNOS-AS

SMILES: CC1(C)CC[C@]2(C(=O)O)CC[C@]3(C)C(=CC[C@@H]4[C@@]5(C)CC[C@H](O)C(C)(C)[C@@H]5CC[C@]43C)[C@@H]2C1 [oleanolic acid, reference compound]
- Cytotoxicity / LDH activity of the medium [1]: increased LDH activity in a concentration-dependent manner

SMILES: COC(=O)C1=CO[C@@H](O[C@@H]2O[C@H](CO)[C@@H](O)[C@H](O)[C@H]2O)[C@@H]2C(CO)=CC[C@H]12 [geniposide]
- Effect on IL-1β-induced NO production ([5]; IL-1β-treated hepatocytes): did not decrease NO production
- Inhibition of NO production ([5]; up to a final concentration of 800 μM): did not inhibit NO production
- IC50 [6]: 136 µM

SMILES: COc1cc(C2OCC3C(c4ccc(OC)c(OC)c4)OCC23)ccc1O (single isomer, unassigned; (+)) [(+)-Phillygenin, (+)-phillygenin]
- Tnf mRNA level [7]: decreased
- Il1r1 mRNA level [8]: decreased
- iNOS mRNA level [9]: decreased
- IC50 [5, 15]: 193 ± 47.6 µM
- Cytotoxicity / LDH activity of the medium [1]: background LDH activity at concentrations up to 300 μM; also recorded: without showing cytotoxicity

SMILES: O=c1cc(-c2ccccc2)oc2cc(O)c(O)c(O)c12 [Baicalein, baicalein]
- iNOS-AS level [10]: inhibited iNOS-AS in a concentration-dependent manner
- iNOS mRNA level [9]: reduced
- IC50 [5, 15]: 16.8 ± 7.93 µM
- LDH activity in the medium (cytotoxicity) [1]: < 5 % of the activity of the whole-cell extract
- iNOS protein level [11]: reduced
- Liver injury [12]: attenuated

SMILES: O=C(O)[C@H]1O[C@@H](Oc2cc3oc(-c4ccccc4)cc(=O)c3c(O)c2O)[C@H](O)[C@@H](O)[C@@H]1O [Baicalin]
- IC50 relative to that of baicalein ([5]; IL-1β-treated hepatocytes, greater than baicalein): 3.3 fold
- IC50 ([5]; authors' unpublished data (A.F., K.I., M.N.), read-out: IC50 for NO production in IL-1β-treated hepatocytes): 55 µM

SMILES: COC(=O)C1=CO[C@@H](O)[C@@H]2C(CO)=CC[C@H]12 [Genipin, genipin]
- IC50 [5, 15]: 4.4 ± 0.85 µM
- iNOS-AS level [4]: reducing iNOS-AS

SMILES: CC(C(=O)O)c1ccc(CC2CCCC2=O)cc1 (centres unmarked) [loxoprofen]
- Il1r1 gene expression ([2]; rat hepatocytes): suppress

SMILES: C/C=C/C#CC#C/C=C/c1ccco1 [atractylodin]
- IC50 ([3]; constituents of Atractylodes chinensis rhizomes, read-out: IC50 for inhibition of NO production in hepatocytes): 8.25 µM

SMILES: CC1(C)OC(=O)C=C[C@]2(C)[C@H]3CC[C@@]4(C)[C@H](c5ccoc5)OC(=O)[C@H]5O[C@]54[C@]3(C)C(=O)C[C@@H]12 [Obakunone]
- IC50 [3, 14]: 2.6 ± 1.1 µM
- iNOS-AS level [4]: reducing iNOS-AS

SMILES: CC1=CCC[C@H](C)[C@@]12CC[C@@H](C(C)(C)O)C2 [(+)-hinesol]
- IC50 for inhibition of NO production in hepatocytes [3, 16]: could not be calculated

SMILES: C=C[C@H](/C=C\c1ccc(O)cc1)c1ccc(O)cc1 [(−)-Nyasol, (−)-nyasol]
- Ltb mRNA level [13]: significantly reduced
- Tnf mRNA level [7]: significantly reduced
- iNOS mRNA level [9]: significantly decreased
- IC50 [5, 15]: 18.3 ± 2.99 µM
- LDH activity in the medium (cytotoxicity) [1]: < 5 % of the activity of the whole-cell extract

SMILES: O=c1cc(-c2ccc(Oc3ccc(-c4cc(=O)c5c(O)cc(O)cc5o4)cc3O)cc2)oc2cc(O)cc(O)c12 [Loniflavone, loniflavone]
- Tnf mRNA level [7]: decreased
- Il1r1 mRNA level [8]: significantly decreased
- iNOS mRNA level [9]: decreased
- IC50 [5, 15]: 1.64 ± 0.17 µM
- Cytotoxicity / LDH activity of the medium [1]: Cytotoxicity was not observed

SMILES: COc1ccc2cc3[n+](cc2c1OC)CCc1cc2c(cc1-3)OCO2 [Berberine]
- IC50 [3, 14]: 12 ± 3.4 µM

SMILES: C=C1CCC[C@]2(C)CC[C@@H](C(C)(C)O)C[C@@H]12 [β-eudesmol]
- IC50 for inhibition of NO production in hepatocytes [3, 16]: could not be calculated
